# Data as given in EP4570800A1, “CRYSTAL FORM OF PYRIDINOPYRIMIDINONE COMPOUND, ACID SALT THEREOF, CRYSTAL FORM OF ACID SALT THEREOF, AND USE” (Wuhan Humanwell Innovative Drug Research and Development …, priority 2022, dated 2024).
# Biological target: T1, KRAS G12C::SOS1 (Homo sapiens, UniProt Q07889)
# T1 sequence (Q07889 564-1049 limits assumed): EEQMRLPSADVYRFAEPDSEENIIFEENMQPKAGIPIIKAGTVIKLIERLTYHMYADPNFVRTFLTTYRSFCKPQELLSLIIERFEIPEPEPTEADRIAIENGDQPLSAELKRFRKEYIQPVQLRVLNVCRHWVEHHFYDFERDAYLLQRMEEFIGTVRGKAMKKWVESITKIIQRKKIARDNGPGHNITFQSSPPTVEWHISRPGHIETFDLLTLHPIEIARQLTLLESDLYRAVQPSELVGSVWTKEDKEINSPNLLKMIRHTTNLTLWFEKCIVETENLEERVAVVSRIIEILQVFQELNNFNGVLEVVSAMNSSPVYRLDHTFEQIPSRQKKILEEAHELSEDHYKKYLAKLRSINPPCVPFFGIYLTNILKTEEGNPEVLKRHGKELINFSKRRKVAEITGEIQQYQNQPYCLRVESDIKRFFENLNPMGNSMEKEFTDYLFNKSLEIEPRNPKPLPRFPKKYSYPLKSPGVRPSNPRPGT
# Assay: Inhibition of KRAS G12C::SOS1 binding (anti-6his-Tb / anti-GST-XL665 fluorescence ratio)
# Conditions: GST-KRAS G12C and His-SOS1
structure (smiles),measurement,value
"Cc1nc(N[C@H](C)c2cccc(S(F)(F)(F)(F)F)c2)c2cn(C3(CF)CC3)c(=O)cc2n1 [Compound of formula I, (R)-6-(1-(fluoromethyl)cyclopropyl)-2-methyl-4-((1-(3-(pentafluorosulfanyl)phenyl)ethyl)amino)pyrido[4,3-d]pyrimidin-7(6H)-one]",IC50,3.94 nM
